For 17 molecules, melting point, EC50 and IC50 results are on record in US8546608B2, “Proteasome inhibitors and methods of using the same” (Cephalon, Inc., priority 2003, dated 2013).

Data set [1] concerns the target T1, proteasome in Molt-4 cells (human leukemia) (Homo sapiens, UniProt P20618+P28074).
T1 sequence (P28074 60-263): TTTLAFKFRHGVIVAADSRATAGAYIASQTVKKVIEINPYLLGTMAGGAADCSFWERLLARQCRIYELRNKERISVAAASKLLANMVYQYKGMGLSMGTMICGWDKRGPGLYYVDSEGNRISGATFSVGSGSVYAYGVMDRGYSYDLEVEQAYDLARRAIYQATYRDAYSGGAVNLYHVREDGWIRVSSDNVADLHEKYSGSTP
T1 sequence (P20618 29-241): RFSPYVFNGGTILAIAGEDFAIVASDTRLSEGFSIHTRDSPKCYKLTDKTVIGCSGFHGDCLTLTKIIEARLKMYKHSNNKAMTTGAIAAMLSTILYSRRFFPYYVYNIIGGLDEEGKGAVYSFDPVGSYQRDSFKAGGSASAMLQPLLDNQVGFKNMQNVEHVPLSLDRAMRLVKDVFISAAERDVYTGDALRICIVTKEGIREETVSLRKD
The class given is cell-based. The settings on record: assay of Example E, inhibition of MOLT4; read-out: MOLT4 (EC50). The method, boiled down:
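Intact Molt-4 cells (6×10^6 cells/mL) in HEPES-buffered saline were preincubated with inhibitor 15 min at 37 °C, then given cell-permeable MeOSuc-FLF-AFC at 25 μM final.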

For data set [2], the target named is T2, 20S Human Erythrocyte Proteasome (HEP) (Homo sapiens, UniProt P20618+P28074).
T2 construct: 20S Human Erythrocyte Proteasome (HEP), purchased from Immatics Biotechnologies Inc; purchased Immatics Biotechnologies Inc., Tübingen, Germany; host or cells: human erythrocytes (natural source)
Put plainly: Chymotrypsin-like activity of 20S Human Erythrocyte Proteasome (HEP), IC50 determination. The class given is biochemical. As to conditions: assay of Example C, inhibition of HEP. In outline:
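20S proteasome at 0.2 μg/mL (about 0.6 nM catalytic sites) in 20 mM Tris with 0.04% SDS, preincubated 15 min at 37° C with inhibitor before Suc-LLVY-AMC (100 μM final). AMC fluorescence read in the linear range; triplicates, IC50 from concentration series.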

Each structure is given as a SMILES string. A value given as a limit tells only on which side of the number the result lay.

For `CCCCc1ccc(C(=O)N[C@@H](CNC(=O)OCc2ccccc2)C(=O)N[C@@H](CC(C)C)B2O[C@@H]3C[C@@H]4C[C@@H](C4(C)C)[C@]3(C)O2)cc1` [D.16.6], the melting point was 95 to 100 °C. In addition, the EC50 in data set [1] is less than 200 nM. This molecule showed an IC50 in data set [2] of less than 10 nM.
As to `CCCCc1ccc(C(=O)N[C@@H](CNC(C)=O)C(=O)N[C@@H](CC(C)C)B2O[C@@H]3C[C@@H]4C[C@@H](C4(C)C)[C@]3(C)O2)cc1` [D.24.3, 4-butylbenzamide, N-[(1S)-1-[[[(1R)-1-[(3aS,aS,6S,7aR)-hexahydro-3a,5,5-trimethyl-4,6-methano-1,3,2-benzodioxaborol-2-yl-]-3-methylbutyl]amino]carbonyl]-2-(acetamido)ethyl]-], the melting point was 133 to 135 °C. Besides, the EC50 in data set [1] is less than 200 nM. In data set [2], this molecule gave an IC50 of less than 10 nM.
For the molecule `CCCCc1ccc(C(=O)N[C@@H](CNS(C)(=O)=O)C(=O)N[C@@H](CC(C)C)B2O[C@@H]3C[C@@H]4C[C@@H](C4(C)C)[C@]3(C)O2)cc1` [D.24.4, 4-butylbenzamide, N-[(1S)-1-[[[(1R)-1-[(3aS,aS,6S,7aR)-hexahydro-3a,5,5-trimethyl-4,6-methano-1,3,2-benzodioxaborol-2-yl-]-3-methylbulyl]amino]carbonyl]-2-(methanesulfonamido)ethyl]-], the melting point lay in the range of 53 to 55 °C. Also, the EC50 in data set [1] is less than 200 nM. Also, the IC50 in data set [2] was less than 10 nM.
In turn, `CCCCc1ccc(C(=O)N[C@@H](CNC(=O)c2ccc(C)cc2)C(=O)N[C@@H](CC(C)C)B2O[C@@H]3C[C@@H]4C[C@@H](C4(C)C)[C@]3(C)O2)cc1` [D.24.6, 4-butylbenzamide, N-[(1S)-1-[[[(1R)-1-[(3aS,aS,6S,7aR)-hexahydro-3a,5,5-trimethyl-4,6-methano-1,3,2-benzodioxaborol-2-yl-]-3-methylbutyl]amino]carbonyl]-2-[(4-methylphenyl)carbonylamino]ethyl]-] returned a melting point of 150 to 152 °C. Moreover, the concentration for a half-maximal effect (EC50) in data set [1] was less than 200 nM. This molecule came in with an IC50 in data set [2] of less than 10 nM.
In the case of `CCCCCCCCCC(=O)N[C@@H](CNC(=O)c1cccs1)C(=O)N[C@@H](CC(C)C)B1O[C@@H]2C[C@@H]3C[C@@H](C3(C)C)[C@]2(C)O1` [D.24.9, Decanamide, N-[(1S)-1-[[[(1R)-1-[(3aS,4S,6S,7aR)-hexahydro-3a,5,5-trimethyl-4,6-methano-1,3,2-benzodioxaborol-2-yl]-3-methylbutyl]amino]carbonyl]-2-[(thien-2-ylcarbonyl)amino]ethyl]-], the melting point was found to be 110 °C. For the same molecule, in data set [1], the EC50 was less than 200 nM. For the same molecule, the IC50 in data set [2] was less than 10 nM.
As to `CCCCc1ccc(C(=O)N[C@@H](CNC(=O)c2ccc(S(N)(=O)=O)cc2)C(=O)N[C@@H](CC(C)C)B2O[C@@H]3C[C@@H]4C[C@@H](C4(C)C)[C@]3(C)O2)cc1` [D.24.16], the melting point is 145 to 147 °C. The EC50 in data set [1] was less than 200 nM. The 50% inhibitory concentration (IC50) in data set [2] is less than 10 nM.
On to `CCCCCCCCCCCCC(=O)N[C@H](C(=O)N[C@@H](CC(C)C)B(O)O)[C@@H](C)O` [E.3.3, Boronic acid, [(1R)-1-[[(2S,3R)-3-hydroxy-2-[(tridecanoyl)amino]-1-oxobutyl]amino]-3-methylbutyl]], for which the melting point was in the range of 97 to 116 °C. In data set [1], the concentration for a half-maximal effect (EC50) was less than 200 nM. Further, in data set [2], the concentration for half-maximal inhibition (IC50) is less than 10 nM.
For the molecule `CC(C)C[C@H](NC(=O)[C@@H](NC(=O)c1ccc(-c2ccccc2)cc1)[C@@H](C)O)B(O)O` [E.3.5, Boronic acid, [(1R)-1-[[(2S,3R)-3-hydroxy-2-[(4-phenylbenzoyl)amino]-1-oxobutyl]amino]-3-methylbutyl]], the melting point was in the range of 200 to 208 °C. Besides, the EC50 in data set [1] is less than 200 nM. This molecule also returned an IC50 in data set [2] of less than 10 nM.
For `CCCCc1ccc(C(=O)N[C@@H](CNS(C)(=O)=O)C(=O)N[C@@H](CC(C)C)B(O)O)cc1` [E.5.3, Boronic acid, [(1R)-1-[[(2S)-3-(methanesulfamido)-2-[(4-butyl)-benzoylamino]-1-oxopropyl]amino]-3-methylbutyl]], the melting point was 120 to 123 °C. The EC50 in data set [1] lay within 200 to 2000 nM. In addition, the IC50 in data set [2] was less than 100 nM.
As for `CCCCc1ccc(C(=O)N[C@@H](CNC(=O)OCc2ccccc2)C(=O)N[C@@H](CC(C)C)B(O)O)cc1` [E.5.6], the melting point was in the range of 92 to 96 °C. In data set [1], the EC50 was less than 200 nM. For the same molecule, the half-maximal inhibitory concentration (IC50) in data set [2] is less than 10 nM.
`CCCCc1ccc(C(=O)N[C@@H](CNC(C)=O)C(=O)N[C@@H](CC(C)C)B(O)O)cc1` [E.5.8] yielded a melting point of 107 to 109 °C. In data set [1], the EC50 was less than 200 nM. In data set [2], this molecule yielded an IC50 of less than 10 nM.
Molecule `CCCCc1ccc(C(=O)N[C@@H](CNS(=O)(=O)c2ccc(F)cc2)C(=O)N[C@@H](CC(C)C)B(O)O)cc1` [E.5.11, Boronic acid, [(1R)-1-[[(2S)-3-[4-fluoro-benzenesulfonamide]-2-[(4-butylbenzoyl)amino]-1-oxopropyl]amino]-3-methylbutyl]] yielded a melting point of 130 to 132 °C. Besides, the EC50 in data set [1] is less than 200 nM. Moreover, the IC50 in data set [2] was less than 10 nM.
The molecule `CCCCc1ccc(C(=O)N[C@@H](CNC(=O)c2cccn2C)C(=O)N[C@@H](CC(C)C)B(O)O)cc1` [E.5.16, Boronic acid, [(1R)-1-[[(2S)-3-[1-N-methyl-2-pyrrolylcarbonylamino]-2-[(4-butylbenzoyl)amino]-1-oxopropyl]amino]-3-methylbutyl]] yielded a melting point of 130 to 135 °C. Further, the 50% effective concentration (EC50) in data set [1] is less than 200 nM. Besides, the IC50 in data set [2] is less than 10 nM.
In turn, `CCCCc1ccc(C(=O)N[C@@H](CNC(=O)c2ccc(S(N)(=O)=O)cc2)C(=O)N[C@@H](CC(C)C)B(O)O)cc1` [E.5.17, Boronic acid, [(1R)-1-[[(2S)-3-[4-sulfamylbenzoylamino]-2-[(4-butylbenzoyl)amino]-1-oxopropyl]amino]-3-methylbutyl]] showed a melting point of 156 to 159 °C. The EC50 in data set [1] was in the range of 200 to 2000 nM. The molecule also registered an IC50 in data set [2] of less than 10 nM.
Molecule `CCCCc1ccc(C(=O)N[C@@H](CNC(=O)c2ccc(S(C)(=O)=O)cc2)C(=O)N[C@@H](CC(C)C)B(O)O)cc1` [E.5.20, Boronic acid, [(1R)-1-[[(2S)-3-[(4-methylsulfonyl)benzoylamino]-2-[(4-butylbenzoylamino)]-1-oxopropyl]amino]-3-methylbutyl]] gave a melting point of 168 to 170 °C. Also, in data set [1], the EC50 is less than 200 nM. Besides, in data set [2], the IC50 was less than 10 nM.
Turning to `CCCCCCCCCC(=O)N[C@@H](CNC(=O)c1cccnc1)C(=O)N[C@@H](CC(C)C)B(O)O` [E.5.22, Boronic acid, [(1R)-1-[[(2S)-3-(nicotinoylamino)-2-(decanoylamino)-1-oxopropyl]amino]-3-methylbutyl]], the melting point lay in the range of 136 to 141 °C. The EC50 in data set [1] is less than 200 nM. Moreover, the IC50 in data set [2] is less than 10 nM.
In turn, `CCCCc1ccc(C(=O)N[C@@H](CNC(=O)C2CCN(S(C)(=O)=O)CC2)C(=O)N[C@@H](CC(C)C)B(O)O)cc1` [E.5.38, Boronic acid, [(1R)-1-[[(2S)-3-(1-methanesulfonylpiperidine-4-carbonylamino)-2-[(4-butylbenzoylamino)]-1-oxopropyl]amino]-3-methylbutyl]] came in with a melting point of 170 to 173 °C.
